Assays:
[1] = test system: ER+ cancer cells (i.e., MCF-7, MCF-7/BUS, T47D and Ishikawa cells); test: MTT cell viability, summary over ER+ cancer cells; format: cell-based; details: Homo sapiens, read-out: IC50, viability of ER+ cancer cells, E2-non-depleted cells, text summary of Table 1 over MCF-7, MCF-7/BUS
Description: (§1) Straightforward, the tetrazolium salt 3-(4,5-methyltiazol-2yl-)-2,5diphenyl-tetrazolium bromide (MTT) (Applichen, Darmstadt, Germany) was added to cells, incubated for 2–4 h at 37 °C, and lysed in 10% SDS. The mitochondrial metabolization of the tetrazolium salt was determined by the analysis of the optical density at 595 nm, measured with the iMark microplate Reader (Bio–Rad, Irvine, CA, USA).

[2] = test system: T47D cells; test: MTT cell viability assay; format: cell-based, human; details: Homo sapiens, T47D, 72 h, 10%FBS growth media
Description: as §1

[3] = test system: MCF-10A cells; test: MTT cell viability assay; format: cell-based, human; details: Homo sapiens, MCF-10A, 72 h, 10%FBS growth media
Description: (§2) Straightforward, the tetrazolium salt 3-(4,5-methyltiazol-2yl-)-2,5diphenyl-tetrazolium bromide (MTT) (Applichen, Darmstadt, Germany) was added to cells, incubated for 2–4 h at 37 °C, and lysed in 10% SDS.

[4] = test system: MDA-MB-231 cells; test: MTT cell viability assay; format: cell-based, human; details: Homo sapiens, MDA-MB-231, 72 h, 10%FBS growth media
Description: as §2

[5] = test system: Ishikawa cells; test: MTT cell viability assay; format: cell-based, human; details: Homo sapiens, Ishikawa, read-out: IC50 (μM) ISHIKAWA, 72 h, 10%FBS growth media
Description: as §2

[6] = test system: Hs-578T cells; test: MTT cell viability assay; format: cell-based, human; details: Homo sapiens, Hs-578T, 72 h, 10%FBS growth media
Description: as §2

[7] = test system: MCF-7/BUS cells; test: MTT cell viability assay; format: cell-based, human; details: Homo sapiens, MCF7/BUS; 72 h, 10%FBS growth media, MTT; read-out: IC50 (μM) MCF-7/BUS
Description: as §2

[8] = test system: SK-BR-3 cells; test: MTT cell viability assay; format: cell-based, human; details: Homo sapiens, SK-BR-3, 72 h, 10%FBS growth media
Description: as §2

[9] = test system: MCF-7 cells; test: MTT cell viability assay; format: cell-based, human; details: Homo sapiens, MCF7, 72 h, 10%FBS growth media
Description: as §2

[10] = test system: BT-549 cells; test: MTT cell viability assay; format: cell-based, human; details: Homo sapiens, BT-549, 72 h, 10%FBS growth media
Description: as §2

[11] = test system: STAT3 transcriptional activity in HEK293 cells; test: IL6-induced STAT3 transcriptional activity, Renilla reporter HEK-293 cells; details: hIL6 10 ng/ml
[12] = test system: VERO cells; test: MTT cell viability assay; format: cell-based, monkey; details: Primates, Vero, 72 h, 10%FBS growth media
Description: as §2

[13] = test system: PBMC; test: MTT cell viability assay; format: cell-based; details: Homo sapiens, 72 h, 10%FBS growth media
Description: as §2

Molecule | IC50 [1] | IC50 [2] | IC50 [3] | IC50 [4] | IC50 [5] | IC50 [6] | IC50 [7] | IC50 [8] | IC50 [9] | IC50 [10] | maximal luciferase activity or Emax [11] | IC50 [12] | IC50 [13]
COc1ccccc1C1=CC(O)(c2ccc([N+](=O)[O-])cc2)N(Cc2ccccc2)C1=O (stereo not shown) [compound 49, 1-benzyl-5-hydroxy-3-(2-methoxyphenyl)-5-(4-nitrophenyl)-1H-pyrrol-2(5H)-one] | < 10000 nM | > 10 µM | 0.31 ± 0.03 µM | 7.94 ± 2.07 µM | 4.82 ± 1.84 µM | > 10 µM | 5 ± 1.79 µM | > 10 µM | 3.47 ± 1.12 µM | > 10 µM |  |  | 
hIL-6: pure agonist hIL6 (10 ng/mL) used to induce STAT3 transcriptional activity |  |  |  |  |  |  |  |  |  |  | 10.08 ± 2.41 fold induction |  | 
COc1ccc(C2=CC(O)(c3ccc([N+](=O)[O-])cc3)N(Cc3ccccc3)C2=O)cc1 (stereo not shown) [compound 43, 1-benzyl-5-hydroxy-3-(4-methoxyphenyl)-5-(4-nitrophenyl)-1H-pyrrol-2(5H)-one] | < 10000 nM | 8.57 ± 0.43 µM |  | > 10 µM | 3.47 ± 0.94 µM | > 10 µM | 2.85 ± 1.24 µM | 2.16 ± 0.05 µM | 6.54 ± 0.41 µM | 6.23 ± 3.48 µM |  |  | 
COc1cccc2c1C(=O)c1c(O)c3c(c(O)c1C2=O)C[C@@](O)(C(=O)CO)C[C@@H]3O[C@H]1C[C@H](N)[C@H](O)[C@H](C)O1 [DOXO, doxorubicin, reference compound] |  | 0.15 ± 0.02 µM | 0.09 ± 0.01 µM | 0.25 ± 0.07 µM | 0.09 ± 0.03 µM | 0.37 ± 0.05 µM | 0.05 ± 0.02 µM | 0.04 ± 0.01 µM | 0.07 ± 0.01 µM | 0.19 ± 0.04 µM |  | 2.62 ± 0.24 µM | 1.47 ± 0.69 µM
